Reference: BindingDB's records for doi:10.1016/j.bmcl.2004.01.093 (University of California Irvine, 2004)

Target: Protein phosphatase 1 catalytic subunit (Oryctolagus cuniculus)
Assay: Inhibitory activity against protein phosphatase-1 from rabbit skeletal muscle

IC50 [µM]	SMILES
> 100	N#CC[C@]12C=C[C@H](O1)[C@@H]1C(=O)OC(=O)C12 (stereo partly drawn) [((1R,6R,7S)-3,5-Dioxo-4,10-dioxa-tricyclo[5.2.1.0*2,6*]dec-8-en-1-yl)-acetonitrile]
> 100	CC(=O)NC[C@@]12CC[C@@H](O1)C1C(=O)OC(=O)[C@H]12 (stereo partly drawn) [N-((1S,2R,7R)-3,5-Dioxo-4,10-dioxa-tricyclo[5.2.1.0*2,6*]dec-1-ylmethyl)-acetamide]
> 100	CNC(=O)C1C(C(=O)O)[C@@H]2C=C[C@H]1O2 (stereo partly drawn) [(1S,4R)-3-Methylcarbamoyl-7-oxa-bicyclo[2.2.1]hept-5-ene-2-carboxylatemethyl-ammonium;]
> 100	CC(=O)NC[C@@]12C=C[C@@H](O1)C1C(=O)OC(=O)[C@H]12 (stereo partly drawn) [N-((1S,2R,7R)-3,5-Dioxo-4,10-dioxa-tricyclo[5.2.1.0*2,6*]dec-8-en-1-ylmethyl)-acetamide]
60	COC(=O)c1cccc(NC(=O)C2C(C(=O)O)[C@@H]3C=C[C@H]2O3)c1 (stereo partly drawn) [(1S,4R)-3-(3-Methoxycarbonyl-phenylcarbamoyl)-7-oxa-bicyclo[2.2.1]hept-5-ene-2-carboxylic acid]

SMILES	IC50 [µM]
CCOC(=O)c1ccc(NC(=O)C2C(C(=O)O)[C@@H]3C=C[C@H]2O3)cc1 (stereo partly specified)	76
